What was measured:
[1] = test system: pigweed; experiment: Test A preemergence; format: in vivo, Amaranthus retroflexus
Method in brief: (§1)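 Compounds in non-phytotoxic solvent with surfactant applied as soil spray preemergence, or postemergence to plants 2-10 cm at one- to two-leaf stage, in loam/sand. After approximately 10 days in greenhouse, injury rated visually versus untreated controls, 0 (no effect) to 100 (complete control).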

[2] = test system: barnyardgrass; experiment: Test C flooded paddy test; format: in vivo, Echinochloa crus-galli; settings: Flood, scale 0 to 100 (0 no effect, 100 complete control), 13 to 15 days
Description: (§2) At time of treatment, test pots were flooded to 3 cm above the soil surface, treated by application of test compounds directly to the paddy water, and then maintained at that water depth for the duration of the test. Treated plants and controls were maintained in a greenhouse for 13 to 15 days, after which time all species were compared to controls and visually evaluated. […] A dash (-) response means no test result.

[3] = test system: barnyardgrass; experiment: Test B flooded paddy test; format: in vivo, Echinochloa crus-galli; settings: Flood, 250 g ai/ha; 0 to 100 scale where 0 is no effect and 100 is complete control
Method in brief: (§3)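 Compound added straight to paddy water, with pots kept flooded 3 cm above soil, on plants grown to the 2-leaf stage. Visual scoring 0-100 (100 = complete control) against untreated controls after 13 to 15 greenhouse days.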

[4] = test system: sedge, umbrella; experiment: Test C flooded paddy test; format: in vivo, Cyperus difformis; settings: Flood, scale 0 to 100 (0 no effect, 100 complete control), 13 to 15 days
Description: as §2

[5] = test system: pigweed; experiment: Test A postemergence; format: in vivo, Amaranthus retroflexus; settings: 0 to 100 scale where 0 is no effect and 100 is complete control
Method in brief: as §1

[6] = test system: velvetleaf; experiment: Test A preemergence; format: in vivo, Abutilon theophrasti
Method in brief: as §1

[7] = test system: Heteranthera limosa; experiment: Test B flooded paddy test; format: in vivo; settings: Flood, 250 g ai/ha; 0 to 100 scale where 0 is no effect and 100 is complete control
Method in brief: as §3

[8] = test system: giant foxtail; experiment: Test A postemergence; format: in vivo, Setaria faberii; settings: 0 to 100 scale where 0 is no effect and 100 is complete control
Method in brief: as §1

[9] = test system: giant foxtail; experiment: Test A preemergence; format: in vivo, Setaria faberii
Method in brief: as §1

[10] = test system: barnyardgrass; experiment: Test A preemergence; format: in vivo, Echinochloa crus-galli
Method in brief: as §1

[11] = test system: corn; experiment: Test A postemergence; format: in vivo, Zea mays; settings: 0 to 100 scale where 0 is no effect and 100 is complete control
Method in brief: as §1

[12] = test system: ducksalad; experiment: Test C flooded paddy test; format: in vivo, Heteranthera limosa; settings: Flood, scale 0 to 100 (0 no effect, 100 complete control), 13 to 15 days
Description: as §2

[13] = test system: wheat; experiment: Test A postemergence; format: in vivo, Triticum aestivum; settings: 0 to 100 scale where 0 is no effect and 100 is complete control
Method in brief: as §1

[14] = test system: rice; experiment: Test C flooded paddy test; format: in vivo, Oryza sativa; settings: Flood, scale 0 to 100 (0 no effect, 100 complete control), 13 to 15 days
Description: as §2

[15] = test system: morningglory; experiment: Test A preemergence; format: in vivo, Ipomoea spp.
Method in brief: as §1

[16] = test system: sedge, umbrella; experiment: Test B flooded paddy test; format: in vivo, Cyperus difformis; settings: Flood, 250 g ai/ha; 0 to 100 scale where 0 is no effect and 100 is complete control
Method in brief: as §3

[17] = test system: large (Lg) crabgrass; experiment: Test A preemergence; format: in vivo, Digitaria sanguinalis
Method in brief: as §1

[18] = test system: large (Lg) crabgrass; experiment: Test A postemergence; format: in vivo, Digitaria sanguinalis; settings: 0 to 100 scale where 0 is no effect and 100 is complete control
Method in brief: as §1

[19] = test system: rice; experiment: Test B flooded paddy test; format: in vivo, Oryza sativa; settings: Flood, 250 g ai/ha; 0 to 100 scale where 0 is no effect and 100 is complete control
Method in brief: as §3

[20] = test system: morningglory; experiment: Test A postemergence; format: in vivo, Ipomoea spp.; settings: 0 to 100 scale where 0 is no effect and 100 is complete control
Method in brief: as §1

[21] = test system: wheat; experiment: Test A preemergence; format: in vivo, Triticum aestivum
Method in brief: as §1

[22] = test system: corn; experiment: Test A preemergence; format: in vivo, Zea mays
Method in brief: as §1

[23] = test system: barnyardgrass; experiment: Test A postemergence; format: in vivo, Echinochloa crus-galli; settings: 0 to 100 scale where 0 is no effect and 100 is complete control
Method in brief: as §1

[24] = test system: velvetleaf; experiment: Test A postemergence; format: in vivo, Abutilon theophrasti; settings: 0 to 100 scale where 0 is no effect and 100 is complete control
Method in brief: as §1

[25] = 500 g ai/ha, 0 to 100 scale where 0 is no effect and 100 is complete control

`C#Cc1cnn(-c2ccccc2Oc2ncc(Cl)cn2)c1` [Compound 188] was tested, and the “Pigweed plant response rating (0 to 100 scale)” value ([1]; 125 g ai/ha) was 100, the “Pigweed plant response rating” value [1, 25] was 100 and the “Plant response rating, Barnyardgrass” value ([2]; 31 g ai/ha) was 0. For the same molecule, the “Plant response rating, Barnyardgrass” value ([2]; 62 g ai/ha) was 0, the “Plant response rating, Barnyardgrass” value ([2]; 125 g ai/ha) was 0 and the “Plant response rating, Barnyardgrass” value ([2]; 250 g ai/ha) was 0. For the same molecule, the “Plant response rating, Barnyardgrass” value [3] was 30, the “Plant response rating, Sedge, Umbrella” value ([4]; 31 g ai/ha) was 0 and the “Plant response rating, Sedge, Umbrella” value ([4]; 62 g ai/ha) was 0. For the same molecule, the “Plant response rating, Sedge, Umbrella” value ([4]; 125 g ai/ha) was 50, the “Plant response rating, Sedge, Umbrella” value ([4]; 250 g ai/ha) was 75 and the “Pigweed plant response rating” value ([5]; 125 g ai/ha) was 100. For the same molecule, the “Plant response rating, Pigweed” value ([5]; 500 g ai/ha) was 100, the “Velvetleaf plant response rating (0 to 100 scale)” value ([6]; 125 g ai/ha) was 70 and the “Velvetleaf plant response rating” value [6, 25] was 100. For the same molecule, the “Plant response rating, Ducksalad” value [7] was 90, the “Foxtail, Giant plant response rating” value ([8]; 125 g ai/ha) was 60 and the “Plant response rating, Foxtail, Giant” value ([8]; 500 g ai/ha) was 90. For the same molecule, the “Foxtail, Giant plant response rating (0 to 100 scale)” value ([9]; 125 g ai/ha) was 90, the “Foxtail, Giant plant response rating” value [9, 25] was 100 and the “Barnyardgrass plant response rating (0 to 100 scale, 0 is no effect, 100 is complete control)” value ([10]; 125 g ai/ha) was 30. The “Barnyardgrass plant response rating” value [10, 25] was 100, the “Corn plant response rating” value ([11]; 125 g ai/ha) was 20 and the “Plant response rating, Corn” value ([11]; 500 g ai/ha) was 50. The “Plant response rating, Ducksalad” value ([12]; 31 g ai/ha) was 0, the “Plant response rating, Ducksalad” value ([12]; 62 g ai/ha) was 0 and the “Plant response rating, Ducksalad” value ([12]; 125 g ai/ha) was 40. For the same molecule, the “Plant response rating, Ducksalad” value ([12]; 250 g ai/ha) was 60, the “Wheat plant response rating” value ([13]; 125 g ai/ha) was 0 and the “Plant response rating, Wheat” value ([13]; 500 g ai/ha) was 30. The “Plant response rating, Rice” value ([14]; 31 g ai/ha) was 0, the “Plant response rating, Rice” value ([14]; 62 g ai/ha) was 0 and the “Plant response rating, Rice” value ([14]; 125 g ai/ha) was 0. For the same molecule, the “Plant response rating, Rice” value ([14]; 250 g ai/ha) was 0, the “Morningglory plant response rating (0 to 100 scale)” value ([15]; 125 g ai/ha) was 10 and the “Morningglory plant response rating” value [15, 25] was 90. The “Plant response rating, Sedge, Umbrella” value [16] was 90, the “Crabgrass, Large plant response rating (0 to 100 scale)” value ([17]; 125 g ai/ha) was 90 and the “Crabgrass, Large plant response rating” value [17, 25] was 100. For the same molecule, the “Crabgrass, Large plant response rating” value ([18]; 125 g ai/ha) was 50, the “Plant response rating, Crabgrass, Large” value ([18]; 500 g ai/ha) was 80 and the “Plant response rating, Rice” value [19] was 0. The “Morningglory plant response rating” value ([20]; 125 g ai/ha) was 40, the “Plant response rating, Morningglory” value ([20]; 500 g ai/ha) was 100 and the “Wheat plant response rating (0 to 100 scale)” value ([21]; 125 g ai/ha) was 0. The “Wheat plant response rating” value [21, 25] was 30, the “Corn plant response rating (0 to 100 scale)” value ([22]; 125 g ai/ha) was 0 and the “Corn plant response rating” value [22, 25] was 20. The “Barnyardgrass plant response rating” value ([23]; 125 g ai/ha) was 30, the “Plant response rating, Barnyardgrass” value ([23]; 500 g ai/ha) was 90 and the “Velvetleaf plant response rating” value ([24]; 125 g ai/ha) was 90. The “Plant response rating, Velvetleaf” value ([24]; 500 g ai/ha) was 100.

— patent US9695155B2, “Herbicidal substituted pyrimidinyloxy benzene compounds” (E. I. DU PONT DE NEMOURS AND COMPANY, priority 2013, dated 2017)
